Values of other authors in patent US20240384361A1, “LONG-TERM SURROGATE VIRUS ASSAYS AND METHODS” (priority 2021, published 2024).

Columns and labels:
ASFV [1] = tested on: ASFV
ASFV [2] = tested on: ASFV; remark: listed apart in the source

| SMILES | virus inactivation on wood surfaces (ASFV [1]) | ASFV infectivity in feed matrices (ASFV [2]) |
| --- | --- | --- |
| O=C(O)CC(O)(CC(=O)O)C(=O)O [citric acid] | completely inactivated |  |
| CCCCCCCCCCCC(=O)OCC(O)CO (centres unmarked) [glycerol monolaurate] |  | reduce ASFV infectivity |
